The nature of data set [1]: Adsorption capacity assay: peptides with HA particles (Micro BCA). In kind it is binding. The following applies: for Concentration change (95% CI): initial vs final concentration with HA particles; for Final concentration (Mean ± SD): peptide solution mixed with HA particles (20 mg/tube), overnight 37° C. As for the experimental part:
The adsorption of P-113, P-113-DPS, P-113-DA, and P-113-SK to HA particles (Sigma Chemical Co., St Louis, USA) was measured using the Micro BCA method with Sp-H5 as the control group. Solutions of P-113, P-113-DPS, P-113-DA, P-113-SK and Sp-H5 in 10 mM HEPES buffer (pH 7) were diluted to 10 nmol/mL concentrations, and 200 μL was placed into each tube (P-113, N=10; P-113-DPS, N=10; P-113-DA, N=10; P-113-SK, N=10; and Sp-H5, N=10). Peptide solutions were mixed with (n=5) or without (n=5) HA particles (20 mg/tube) in each group. Tubes were placed onto a rotator overnight at 37° C. for complete reaction. Tubes containing the peptide solution and HA were centrifuged (13000 rpm, 1 min) and the supernatant collected. Bovine serum albumin (BSA) standard solutions (working range=5-250 μg/mL) and working reagent were prepared using the Pierce BCA Protein Assay Kit (Rockford, IL, USA). Working reagents (100 μL/well) were added to a 96-well plate, followed by standard and peptide solutions (100 μL/well). The Plate was incubated in the dark for 30 min and the absorbance (562 nm) measured using a plate reader. The concentration (C) of the BSA standard solution was linear with the absorbance (A) at 562 nm. The function of C=a*A+b was determined (a and b as constants). The final concentration (the peptide solution mixed with HA) and the initial concentration (the peptide solution without HA) were computed using the function and the generated absorbance data of the peptide solution mixed with and without HA.

Data set [2] relates to S. mutans. Briefly: Anti-planktonic bacterial ability, MIC and MBC (Example 1). In kind it is cell-based, Streptococcus mutans (ATCC 35668). The settings on record: for MIC: 24 h. Here is the method:
(§1) Streptococcus mutans (ATCC 35668, ATCC, Manassas, USA) were cultured in Horse Blood Medium under anaerobic (85% N2, 10% H2, and 5% CO2) conditions at 37° C. Cells were harvested by centrifugation (5000 rpm, 10 min), washed once with 10 mM sodium phosphate-buffered saline (PBS, pH 7.2), and resuspended in brain-heart infusion broth (BHI, Difco Laboratories, Detroit, USA) at a concentration of 10^6 CFU/mL.
Two-fold serial dilutions (in 10 mM HEPES) of P-113, P-113-DPS, P-113-DA, P-113-SK, and Sp-H5 prepared in 25% BHI medium were pipetted into a 96-well cell culture plate at final concentrations from 0.125-128 μmol/mL [100 μL/well]. Each well was seeded with 10 μL bacterial suspension at a final concentration of 10^6 CFU/mL. Sp-H5 with bacterial cells and 25% BHI medium with and without bacterial cells in 10 mM HEPES buffer (pH 7) were used as the positive, negative, and blank control group, respectively. After a 24-h incubation, absorbance was measured at 595 nm using a microplate reader to assess cell growth. […] The minimal bactericidal concentration (MBC) was defined as the lowest concentration of peptide resulting in no colony formation on agar plates after incubation. 10 μL of cell suspension from each well were plated on horse blood agar plates and incubated at 37° C. for 48 h. All determinations were conducted in triplicate experiments.

Another data set has as its system S. mutans biofilms. In kind it is cell-based. The settings on record: for S. mutans killed (biofilm) / Viability counts of S. mutans biofilms: 24 h exposure. Here is the method: as §1
S. mutans biofilms were cultured on enamel working surfaces in a 96-well plate. Tooth slices (N=32) were autoclave-sterilized prior to anti-biofilm activity testing. 200 μL S. mutans in BHI (10^6 CFU/mL) was added to each well. After a 24-h incubation at 37° C., each tooth slice was washed once with PBS. […] (in 10 mM HEPES). After incubation, tooth slices were washed once with PBS. One tooth slice at random in each group was stained with the LIVE/DEAD BacLight Bacterial Viability Kit (L7012, Thermo Fisher Scientific, Waltham, USA) and incubated in the dark for 30 min. Fluorescence images were obtained using confocal laser scanning microscopy (CLSM, Fluoview 1000, Olympus, USA). A separate tooth slice was used for the counting of colony-forming units (CFU). Tooth slices were placed in 1 mL BHI solution, and adherent biofilms were removed from the enamel surfaces by sonication for 30 sec. Ten-fold serial dilutions of the suspensions were plated in duplicate on horse blood agar. CFU's were counted after 48-h incubation. Three independent biofilm experiments were performed.

The nature of data set [3]: Demineralization assay of peptide-coated enamel (Example 1). Also noted: species or system human. The settings on record: for Maximum lesion depth: 8 μmol/mL coating, MicroCT. As for the experimental part:
(§2) 3×3×1.5 mm^3 (number: 197) tooth slices were prepared using a water-cooled diamond saw (IsoMet low-speed saw, Buehler, Lake Bluff, IL, USA). One working surface of complete enamel tissue from each tooth slice was generated using the MicroCT Skyscan 1172 (Bruker MicroCT, Kontich, Belgium). The enamel working side of the tooth slice was polished and other sides marked with acid-proof nail polish. All tooth slices were cleaned and stored in deionized water at 4° C.
Tooth slices (N=30) were immersed in 8 μmol/mL P-113, P-113-DPS, P-113-DA, P-113-SK, Sp-H5 (n=5 for each) solutions (in 10 mM HEPES) or HEPES (control) overnight. Tooth slices were incubated in 2 mL demineralization solution (2.2 mM CaCl2), 2.2 mM NaH2PO4, 0.05 M acetic acid, pH 4.5) for 7 days at 37° C. Lesions depths were analyzed by MicroCT Skyscan 1172. Mineral calcium (Ca) or phosphorus (P) concentrations before and after immersion were measured using Inductively Coupled Plasma Optical Emission Spectrometer (ICP-OES; Spectro Arcos, Kleve, Germany). Ca/P loss was expressed as mM/cm^2. The mean values of Ca/P loss were analyzed for each group using ANOVA at the 1% c significance level.

A short description of data set [4]: Remineralization assay of peptide-coated enamel (Example 1). The following applies: 8 μmol/mL coating, remineralization solution 24 h, FE-SEM. The arrangement: species or system human. As for the experimental part:
as §2
The enamel working surface of tooth slices (N=30) was acid-etched in 37% phosphoric acid for 1 min and rinsed with deionized water for 1 min. The slices were immersed in 8 μmol/mL P-113, P-113-DPS, P-113-DA, P-113-SK, Sp-H5 (n=5 for each) solutions (in 10 mM HEPES) or HEPES (control) overnight. All tooth slices were incubated in 7 mL remineralization solution (2.58 mM CaCl2)·2H2O, 1.55 mM KH2PO4, 10 mg/L NaF, 180 mM NaCl, 50 mM Tris-HCl, pH 7.6) for 24 h. The enamel surface and cross-section morphology were analyzed by FE-SEM (Hitachi, S4800). Ca/P concentrations in the solutions before and after immersion were calculated by ICP-OES. The mean values for Ca/P gain were analyzed using ANOVA at the 1‰ significance level.

The subject of another data set is S. gordonii. Briefly: Anti-planktonic bacterial ability, MBC (Example 2). In kind it is cell-based, S. gordonii (ATCC 35105). As for the experimental part: (§3) S. mutans (ATCC 35668, ATCC, Manassas, USA), S. gordonii (ATCC 35105, ATCC, Manassas, USA), and S. sanguinis (ATCC 10556, ATCC, Manassas, USA) strains were cultured in brain-heart infusion broth (BHI, Difco Laboratories, Detroit, USA) at 37° C. under anaerobic conditions (85% N2, 10% H2, and 5% CO2). Bacteria were harvested by centrifugation (5000 rpm, 10 min), washed once with sodium phosphate-buffered saline (PBS, 10 mM, pH=7.2), and resuspended in BHI at a concentration of 1×10^6 CFU mL^−1.
(§4) Each well was seeded with 10 μL S. mutans suspension, S. gordonii suspension, and S. sanguinis suspension, respectively. […] The bacterial growth was assessed by measuring the absorbance at 595 nm using a microplate reader after a 24-hour incubation. Subsequently, 10 μL of bacterial suspension from each well were plated on horse blood agar plates and incubated at 37° C. for 48 h. The antibacterial activities of AMPs were evaluated.

A further data set deals with S. sanguinis. Briefly: Anti-planktonic bacterial ability, MBC (Example 2). In kind it is cell-based, S. sanguinis (ATCC 10556). As for the experimental part:
as §3, §4

Data set [5] relates to S. mutans. The data set can be described thus: Anti-planktonic bacterial ability, MBC (Example 2). In kind it is cell-based, S. mutans (ATCC 35668). Here is the method: as §3, §4
The next data set concerns MC3T3-E1 cells. The data set can be described thus: Cytocompatibility test, CCK-8 (Example 2). The arrangement: Cytocompatibility: key to the marks not given beside the values.
A short description of another data set: in vitro. The following applies: human, human saliva (centrifuged, filtered supernatant).
The conditions of data set [6]: for Peptide concentration incubated in human saliva: 37° C.
Method: (§5) The collected saliva samples were centrifuged at 12,000 rpm for 20 min^21]. The supernatant was filtered to remove any debris. […] At 0, 0.5, 1, 2, 4, and 6 h, 40 uL solutions were taken from each sample and were analysed by High Performance Liquid Chromatography (HPLC-UV, 1525 Binary HPLC Pump, 2489 UV/Visible Detector, Waters, USA).
The subject of data set [7] is S. mutans. Briefly: Anti-bacterial adhesion ability on peptide-coated enamel (Example 1). In kind it is cell-based, Streptococcus mutans (ATCC 35668). The settings on record: 32 μmol/mL coated, 5 h incubation. As for the experimental part:
as §1
After overnight incubation, they were placed in a 96-well plate, followed by 200 μL S. mutans in BHI (10^6 CFU/mL) and incubation at 37° C. for 5 h. Tooth slices were washed once with PBS, one tooth slice at random from each group was stained, and fluorescence images obtained by CLSM. Separate tooth slices were used for CFU counting. Three independent biofilm experiments were performed.

The mark [8] stands for this setting: demineralization solution 7 days.

Like-named read-outs stand apart in the source and are kept apart here. Non-standard residues stand in square brackets, D forms with d. No end group written: not given here. *: point of attachment. 3,4‑dihydroxyphenethylamine = Oc1ccc(CCN*)cc1O; pS = N[C@@H](COP(=O)(O)O)C(=O)O

Method for MC3T3-E1 cells: Cells exposed to α-MEM without peptide was the control group. Cells viability after peptide exposure was evaluated by cell survival rate using Cell Counting Kit-8 assay (CCK-8 assay, Sigma-Aldrich, St. Louis, USA).
Method for in vitro: as §5

For “AKRHHGYKRKFH-D-3,4-dihydroxyphenethylamine (AKRHHGYKRKFHD-{3,4‑dihydroxyphenethylamine}; not fully specified; printed as AKRHHGYKRKFH-D-3,4-dihydroxyphenethylamine) [Peptide P-113-DA]”, in data set [1], the “Concentration change (95% CI)” value is recorded as −0.17 (−0.55-0.40) and the “Final concentration (Mean ± SD)” value is recorded as 10.05 ± 0.99 nM mL^−1. In the data set on S. mutans [2], this substance displayed an MBC of 32 μM mL^−1 and an MIC of 16 μM mL^−1. For the same substance, in the data set on S. mutans biofilms (64 μmol/mL), the “S. mutans killed (biofilm)” value is given as “Approximately 99%” and the “Viability counts of S. mutans biofilms” value is 6.04E+05 CFU/mL. In addition, the “CLSM live/dead state of S. mutans biofilm” value with S. mutans biofilms (64 and 128 μmol/mL, 24 h) is recorded as “the majority of S. mutans were dead”. Besides, in data set [3] (setting [8]), the Maximum lesion depth is recorded as 110 μm and the “Ca losses vs control group” value is “Significant differences were not detected”. In addition, the “Thickness of the regenerated crystal layer on the enamel surface” value in data set [4] was 7 μm.

On to “AKRHHGYKRKFHDSSDSSDSSDSSDSSDSSDSSDSS [Peptide P-113-8DSS]”, for which, in the data set with S. gordonii, the “MBC, S. gordonii” value was more than 64 μM mL^−1. In addition, the “MBC, S. sanguinis” value with S. sanguinis was more than 64 μM mL^−1. Besides, the “MBC, S. mutans” value with S. mutans [5] is more than 64 μM mL^−1.

On to “DSSDSSDSSDSSDSSDSSDSSDSSAKRHHGYKRKFH [Peptide 8DSS-P-113]”, for which, in the data set with S. gordonii, the “MBC, S. gordonii” value stood at 64 μM mL^−1. Also, in the data set with S. sanguinis, the “MBC, S. sanguinis” value is given as 64 μM mL^−1. The “MBC, S. mutans” value in the data set on S. mutans [5] is more than 64 μM mL^−1.

In the case of “SpSpAKRHHGYKRKFH ([pS][pS]AKRHHGYKRKFH) [DPS-P-113]”, the “MBC, S. gordonii” value with S. gordonii is more than 64 μM mL^−1. The “MBC, S. sanguinis” value against S. sanguinis was more than 64 μM mL^−1. Besides, the “MBC, S. mutans” value against S. mutans [5] is on record as 64 μM mL^−1.

Regarding TFFRLFNRAKRHHGYKRKFH [Peptide C8-P-113], the “Concentrations with no significant differences in cell survival rates compared to the control group” value with MC3T3-E1 cells (MC3T3-E1, 24 h, ½×MBC, MBC and 2×MBC tested) was “all concentrations”. Moreover, in the data set with MC3T3-E1 cells (summary grade), the Cytocompatibility result is “++”. The same substance displayed an amount remaining at 6 h, 1 mg mL^−1 in the data set “in vitro” of 11.9%. Further, the “Peptide concentration incubated in human saliva” value in data set [6] (0 h) came out at 1 mg/mL; in data set [6] (0.5 h), 0.9531 mg/mL; in [6] (1 h) it was 0.8602 mg/mL; in data set [6] (2 h), 0.4977 mg/mL; in data set [6] (4 h), 0.3578 mg/mL; in [6] (6 h), 0.119 mg/mL. Besides, the Stability entry in data set [6] (summary grade) is listed as “−”.

Take “TFFRLFNRAKRHHGYKRKFHDSSDSSDSSDSSDSSDSSDSSDSS (not fully specified) [C8-P-113-8DSS]”: the “MBC, S. gordonii” value with S. gordonii is more than 64 μM mL^−1. Also, the “MBC, S. sanguinis” value against S. sanguinis was more than 64 μM mL^−1. Moreover, the “MBC, S. mutans” value with S. mutans [5] was 64 μM mL^−1.

On to “phosphoserine-DSHAKRHHGYKRKFHEKHHSHRGY (SDSHAKRHHGYKRKFHEKHHSHRGY; N-terminal phosphoserine; MOD_RES 1 Serine is phosphorylated) [Sp-H5, phosphoserine-histatin 5, used as control group]”, for which, in data set [1], the “Concentration change (95% CI)” value is recorded as 3.27 (2.92-3.58) and the “Final concentration (Mean ± SD)” value is given as 6.73 ± 0.12 nM mL^−1. In the data set with S. mutans [2], the MBC stood at 32 μM mL^−1 and the MIC came out at 8 μM mL^−1. In addition, in the data set with S. mutans biofilms (128 μmol/mL), the “S. mutans killed (biofilm)” value is on record as “Approximately 99%” and the “Viability counts of S. mutans biofilms” value was determined as 2.0E+04 CFU/mL. Moreover, the Maximum lesion depth in data set [3] (setting [8]) stood at 85 μm. Besides, the “Ca and P loss from coated enamel slices (ICP-OES)” value in data set [3] (vs P-113-, P-113-DA-, P-113-SK-coated or non-coated slices, P<0.001) is “decreased significantly”. In addition, the “Viable counts of S. mutans on peptide-coated enamel surfaces” value in the data set on S. mutans [7] came out at 2.04E+05 CFU/mL. Further, in data set [4], the “Thickness of the regenerated crystal layer on the enamel surface” value is 6 μm.

What is called share remaining is what is left of the initial amount, in per cent.
